The source of these data is ChEMBL document CHEMBL2331293, “Attenuating Staphylococcus aureus virulence gene regulation: a medicinal chemistry perspective” (J Med Chem, 2013).

Test [1] is described as follows: Inhibition of Staphylococcus aureus AgrC4.
Test [2] is described as follows: Inhibition of Staphylococcus aureus AgrC2.
The nature of test [3]: Inhibition of Staphylococcus aureus AgrC3.
Test [4] is described as follows: Inhibition of Staphylococcus aureus AgrC1.
The nature of test [5]: Activation of Staphylococcus aureus AgrC4.
Test [6] is described as follows: Activation of Staphylococcus aureus AgrC1.
A short description of test [7]: Inhibition of Staphylococcus aureus AgrC1-mediated RNA3 promoter activation.
Another test deals with Staphylococcus aureus. In words: Inhibition of Staphylococcus aureus AgrC1-mediated RNA3 promoter activation at 12 uM.

Positions of bridges follow the written chain, without caps; N, C: chain ends. Non-standard residues stand in square brackets, D forms with d. Residues, ends and D or L forms follow the SMILES beside them. *: point of attachment. X2 = O=C(c1ccccc1)c1ccc(OCCCC(=O)*)cc1; X1 = O=C(CCCOc1ccc(Cc2ccccc2)cc1)*; NMeF = CN[C@@H](Cc1ccccc1)C(=O)O; NMeL = CN[C@@H](CC(C)C)C(=O)O; NMeS = CN[C@@H](CO)C(=O)O; Abu = CC[C@H](N)C(=O)O; Dap = NC[C@H](N)C(=O)O; Ava = NCCCCC(=O)O; Mpa = O=C(O)CCS

What is called IC50 is the concentration that gives 50% inhibition. Read a low IC50 as inhibition by little substance. As to `CC(=O)N[C@H]1CSC(=O)[C@H](Cc2ccccc2)NC(=O)[C@H](CC(C)C)NC(=O)[C@H](CO)NC(=O)[C@H](CO)NC1=O` (Ac-CSSLF; thioester 1-C), the IC50 was 150 nM in test [1], 230 nM in test [2], 4 nM in test [3] and 260 nM in test [4]. As for `CC[C@H](C)[C@@H]1NC(=O)[C@H](Cc2ccccc2)NC(=O)[C@H](C)NC(=O)[C@@H](NC(=O)[C@@H](NC(=O)[C@H](CO)NC(=O)CCCOc2ccc(C(=O)c3ccccc3)cc2)[C@@H](C)O)CSC(=O)[C@H](CCSC)NC1=O` (X2-STCAFIM; thioester 3-C), the IC50 in test [2] is 18 nM; in test [4], 303 nM. As for `CC[C@@H]1NC(=O)[C@@H](NC(=O)[C@@H](NC(=O)[C@H](CO)NC(=O)[C@@H](N)Cc2ccc(O)cc2)[C@@H](C)O)CSC(=O)[C@H](CCSC)NC(=O)[C@H]([C@@H](C)CC)NC(=O)[C@H](Cc2ccccc2)NC1=O` (H-YSTC[Abu]FIM; thioester 4-C), the IC50 worked out at 2.8 nM in test [2] and 137 nM in test [4]. With `CCc1oc2ccccc2c1C(=O)c1ccc(O)cc1` [BENZARONE], in test [4], the IC50 was 1290 nM. The same measure, in the same setting: under `CCOC(=O)c1c(C)oc2cc(-c3cc(Br)c(O)c(Br)c3)ccc12` stands 780 nM. The compound `COc1ccc(NC(=O)C(c2cc3c(cc2[N+](=O)[O-])OCO3)N2CC(C)CC(C)C2)cc1` (stereo not given) came in with an IC50 in test [3] of 1310 nM. Consider `CC(=O)N[C@H]1CSC(=O)[C@H](Cc2ccccc2)NC(=O)[C@H](CC(C)C)NC(=O)CNC(=O)[C@H](CO)NC1=O` (Ac-CSGLF; thioester 1-C), for which the results for the IC50 in test [2] and in test [4] were 194 nM and 40 nM, respectively. On to `CCc1oc2ccccc2c1C(=O)c1cc(Br)c(O)c(Br)c1` [BENZBROMARONE], for which, in test [4], the IC50 came out at 130 nM. For `CC[C@H](C)[C@@H]1NC(=O)[C@H](Cc2ccccc2)NC(=O)[C@H](C)NC(=O)[C@@H](NC(=O)[C@@H](NC(=O)[C@H](CO)NC(=O)[C@@H](N)Cc2ccc(O)cc2)[C@@H](C)O)CSC(=O)[C@H](CCSC)NC1=O` (H-YSTCAFIM; thioester 4-C), the IC50 was 3 nM in test [1], 8 nM in test [2], 0.3 nM in test [3] and 5 nM in test [4]. With `CC1CCCN(C(C(=O)Nc2ccc3c(c2)OCO3)c2ccccc2)C1` (stereo not given), the IC50 in test [3] came to 160 nM. As for `CC(=O)N[C@H]1CNC(=O)[C@H](Cc2ccccc2)NC(=O)[C@H](CC(C)C)NC(=O)[C@H](CO)NC(=O)[C@H](CO)NC1=O` (Ac-[Dap]SSLF; lactam 1-C), the IC50 in test [2] turned out to be 167000 nM; in test [4] it was 1390 nM. In the case of `CC(C)c1ccc(NC(=O)C(c2ccc3c(c2)OCO3)N2CCCCC2)cc1` (stereo not given), the IC50 in test [3] came to 250 nM. With `CC(=O)N[C@H]1CSC(=O)[C@H](Cc2ccccc2)NC(=O)[C@H](CC(C)C)NC(=O)CNC(=O)CNC1=O` (Ac-CGGLF; thioester 1-C), the IC50 in test [2] is 238 nM; in test [4] it was 77 nM.

`O=C(Nc1ccc2c(c1)OCO2)C(c1ccccc1)N1CCCCC1` (stereo not given) had an IC50 in test [3] of 1260 nM. In the case of `CC[C@H](C)[C@@H]1NC(=O)[C@H](Cc2ccccc2)NC(=O)[C@H](C)NC(=O)[C@@H](NC(C)=O)CSC(=O)[C@H](CCSC)NC1=O` (Ac-CAFIM; thioester 1-C), the IC50 was found to be 5 nM in test [1], 5 nM in test [2], 0.1 nM in test [3] and 5 nM in test [4]. As for `CC[C@H](C)[C@@H]1NC(=O)[C@H](Cc2ccccc2)NC(=O)[C@H](Cc2ccc(O)cc2)NC(=O)[C@@H](NC(C)=O)CSC(=O)[C@H](CCSC)NC1=O` (Ac-CYFIM; thioester 1-C), the IC50 in test [1] amounted to 4100 nM; in test [2] it was 8 nM; in test [3], 10 nM; in test [4] it was 930 nM. With `CC(=O)N[C@H]1CSC(=O)[C@H](Cc2ccccc2)NC(=O)[C@H](CC(C)C)NC(=O)CCCCNC1=O` (Ac-C[Ava]LF; thioester 1-C), the results for the IC50 in test [2] and in test [4] were 50700 nM and 1140 nM, respectively. Turning to `CC[C@H](C)[C@@H]1NC(=O)[C@H](Cc2ccccc2)NC(=O)[C@H](C)NC(=O)[C@@H](NC(=O)[C@@H](NC(=O)[C@H](CO)NC(=O)CCCOc2ccc(Cc3ccccc3)cc2)[C@@H](C)O)CSC(=O)[C@H](CCSC)NC1=O` (X1-STCAFIM; thioester 3-C), the IC50 was found to be 19 nM in test [2] and 295 nM in test [4].

For orientation: EC50 means the concentration at which the effect is half-maximal. A higher EC50 goes with a need for much substance. For the compound `CC[C@H](C)[C@@H]1NC(=O)[C@H](Cc2ccccc2)NC(=O)[C@H](CC(=O)O)NC(=O)[C@@H](NC(=O)[C@@H](NC(=O)[C@H](CO)NC(=O)[C@@H](N)Cc2ccc(O)cc2)[C@@H](C)O)CSC(=O)[C@H](CCSC)NC1=O` (H-YSTCDFIM; thioester 4-C), the IC50 in test [2] worked out at 25 nM; in test [3], 3 nM. In addition, the 50% effective concentration (EC50) in test [5] was found to be 26000 nM; in test [6], 28 nM. `CC(=O)N[C@H]1CSC(=O)[C@H](Cc2ccccc2)NC(=O)[C@H](CC(C)C)NC(=O)[C@H](CO)NC(=O)CNC1=O` (Ac-CGSLF; thioester 1-C): the IC50 worked out at 1160 nM in test [2] and 189 nM in test [4]. `CC1CCN(C(C(=O)Nc2ccc(C(C)C)cc2)c2ccc3c(c2)OCO3)CC1` (stereo not given) yielded an IC50 in test [3] of 720 nM. `CCCCc1oc2ccccc2c1C(=O)c1ccc(O)cc1` gave an IC50 in test [4] of 540 nM. In the case of `CC[C@H](C)[C@@H]1NC(=O)[C@H](Cc2ccccc2)NC(=O)[C@H](CC(=O)O)NC(=O)[C@@H](NC(C)=O)CSC(=O)[C@H](CCSC)NC1=O` (Ac-CDFIM; thioester 1-C), the IC50 was found to be 47 nM in test [2] and 240 nM in test [3]. In test [6], this compound yielded an EC50 of 5800 nM. As for `CCCCCCCc1cc(O)c2ccccc2[n+]1[O-]`, half-maximal inhibition in test [4] (IC50) was put at 1300 nM. For the compound `CC(=O)N[C@H]1CSC(=O)[C@H](Cc2ccccc2)NC(=O)[C@H](CC(C)C)NC(=O)[C@H](CO)N(C)C(=O)[C@H](CO)NC1=O` (Ac-CS[NMeS]LF; thioester 1-C), the IC50 in test [2] came to 1050 nM; in test [4], 319 nM. In the case of `CC(C)C[C@@H]1NC(=O)[C@H](CO)NC(=O)[C@H](CO)NC(=O)CCSC(=O)[C@H](Cc2ccccc2)N(C)C1=O` ([Mpa]SSL[NMeF]; thioester 1-C), the IC50 is 47300 nM in test [2] and 1680 nM in test [4]. Turning to `CC1CCN(C(C(=O)Nc2ccc3c(c2)OCO3)c2ccccc2)CC1` (stereo not given), in test [3], the IC50 was determined as 980 nM. In the case of `CC(=O)N[C@H]1CSC(=O)[C@H](Cc2ccccc2)NC(=O)[C@H](CC(C)C)NC(=O)[C@H](CO)NC(=O)[C@H](CO)N(C)C1=O` (Ac-C[NMeS]SLF; thioester 1-C), the IC50 came to 7880 nM in test [2] and 639 nM in test [4]. The term inhibition denotes the relative decrease from the control value, in per cent. Read a high inhibition as strong suppression. Consider `CC1CCCN(C(C(=O)Nc2ccc3c(c2)OCCO3)c2ccccc2)C1` (stereo not given), for which the IC50 in test [7] amounted to 100 nM; in test [3], 130 nM. For the same compound, the inhibition with Staphylococcus aureus was greater than 90%.

Take `CC(=O)N[C@H]1CSC(=O)[C@H](Cc2ccccc2)NC(=O)[C@H](CC(C)C)N(C)C(=O)[C@H](CO)NC(=O)[C@H](CO)NC1=O` (Ac-CSS[NMeL]F; thioester 1-C): the IC50 in test [2] and in test [4] was greater than 30000 nM each time.

On to `CC(C)c1ccc(S(=O)(=O)c2nnn3c2nc(O)c2ccccc23)cc1` [SAVIRIN], for which, in test [4], the IC50 was less than 1000 nM. In the case of `O=C(Nc1ccc2c(c1)OCO2)C(c1ccccc1)N1CCC(Cc2ccccc2)CC1` (stereo not given), the IC50 in test [3] is 980 nM.

Consider `CC(=O)N[C@H]1CSC(=O)[C@H](Cc2ccccc2)N(C)C(=O)[C@H](CC(C)C)NC(=O)[C@H](CO)NC(=O)[C@H](CO)NC1=O` (Ac-CSSL[NMeF]; thioester 1-C), for which the IC50 in test [2] and in test [4] was greater than 30000 nM in each case.
